{
  "source": "patent US20120121679A1",
  "about": "“VIRICIDAL AND MICROBICIDAL COMPOSITIONS AND USES THEREOF” (University of Georgia Research Foundation, Inc., priority 2009, published 2012)",
  "key": {"Murine norovirus (MNV-1)": {"test_system": "Murine norovirus (MNV-1)", "experiment": "Inactivation of MNV-1 by levulinic acid plus SDS in solution, plaque assay", "details": "21° C., 1 min"}, "Feline Calicivirus (FCV)": {"test_system": "Feline Calicivirus (FCV)", "experiment": "Inactivation of FCV by levulinic acid plus SDS in solution, plaque assay", "details": "21° C., 1 min"}, "S. enteritidis": {"test_system": "S. enteritidis", "experiment": "Reduction of S. enteritidis in water treated with organic acids and SDS", "type": "cell-based, Salmonella enteritidis"}, "yeast species": {"test_system": "yeast species", "experiment": "Effect of levulinic acids plus SDS at 21° C. on various yeast species"}, "[1]": {"details": "Candida magnoliae, inoculum […] 10^8 CFU/ml"}, "[2]": {"details": "Debaryomyces hansenii, inoculum […] 10^7 CFU/ml"}, "[3]": {"details": "Geotrichum candidum, inoculum […] 10^7 CFU/ml"}, "[4]": {"details": "Saccharomyces cerevisiae, inoculum […] 10^7 CFU/ml"}, "[5]": {"details": "Zygosaccharomyces bailii, inoculum […] 10^7 CFU/ml"}},
  "data": [
    {"smiles": "CCCCCCCCCCCCOS(=O)(=O)[O-].[Na+]", "note": "[0.5% SDS, sodium dodecyl sulfate]", "values": [
      {"measurement": "Log Reduction PFU/ml (standard deviation), MNV-1", "setting": "Murine norovirus (MNV-1); sulfate", "value": "0.13 (±0.20) log PFU/ml"},
      {"measurement": "Log Reduction PFU/ml (standard deviation), FCV", "setting": "Feline Calicivirus (FCV); sulfate", "value": "−0.09 (±0.27) log PFU/ml"}
    ]},
    {"smiles": "CC(=O)O", "note": "[0.5% acetic acid, acetic acid]", "values": [
      {"measurement": "Salmonella reduction in water", "setting": "S. enteritidis", "value": 0.7, "unit": "log CFU/ml"}
    ]},
    {"smiles": "CC(=O)CCC(=O)O", "note": "[0.5% levulinic acid, levulinic acid]", "values": [
      {"measurement": "Log Reduction PFU/ml (standard deviation), MNV-1", "setting": "Murine norovirus (MNV-1)", "value": "0.09 (±0.38) log PFU/ml"},
      {"measurement": "Log Reduction PFU/ml (standard deviation), FCV", "setting": "Feline Calicivirus (FCV)", "value": "0.09 (±0.16) log PFU/ml"}
    ]},
    {"smiles": "CCCCCCCCCCCCOS(=O)(=O)[O-].[Na+]", "note": "[1% SDS, sodium dodecyl sulfate]", "values": [
      {"measurement": "Log Reduction PFU/ml (standard deviation), MNV-1", "setting": "Murine norovirus (MNV-1); sulfate", "value": "0.03 (±0.12) log PFU/ml"},
      {"measurement": "Log Reduction PFU/ml (standard deviation), FCV", "setting": "Feline Calicivirus (FCV); sulfate", "value": "−0.05 (±0.18) log PFU/ml"}
    ]},
    {"smiles": "CCCCCCCCCCCCOS(=O)(=O)[O-].[Na+]", "note": "[1.0% SDS]", "values": [
      {"measurement": "Yeast counts at 2 min", "setting": "yeast species; [1]", "value": 3.3, "unit": "log CFU/ml"},
      {"measurement": "Yeast counts at 5 min", "setting": "yeast species; [1]", "value": 3.2, "unit": "log CFU/ml"},
      {"measurement": "Yeast counts at 20 min", "setting": "yeast species; [1]", "value": 2.7, "unit": "log CFU/ml"},
      {"measurement": "Yeast counts at 30 min", "setting": "yeast species; [1]", "value": 3.0, "unit": "log CFU/ml"},
      {"measurement": "Yeast counts at 60 min", "setting": "yeast species; [1]", "value": 3.1, "unit": "log CFU/ml"},
      {"measurement": "Yeast counts at 2 min", "setting": "yeast species; [2]", "value": 4.1, "unit": "log CFU/ml"},
      {"measurement": "Yeast counts at 5 min", "setting": "yeast species; [2]", "value": 4.5, "unit": "log CFU/ml"},
      {"measurement": "Yeast counts at 20 min", "setting": "yeast species; [2]", "value": 4.5, "unit": "log CFU/ml"},
      {"measurement": "Yeast counts at 30 min", "setting": "yeast species; [2]", "value": 4.5, "unit": "log CFU/ml"},
      {"measurement": "Yeast counts at 60 min", "setting": "yeast species; [2]", "value": 4.4, "unit": "log CFU/ml"},
      {"measurement": "Yeast counts at 2 min", "setting": "yeast species; [3]", "value": 3.3, "unit": "log CFU/ml"},
      {"measurement": "Yeast counts at 5 min", "setting": "yeast species; [3]", "value": 3.5, "unit": "log CFU/ml"},
      {"measurement": "Yeast counts at 20 min", "setting": "yeast species; [3]", "value": 3.5, "unit": "log CFU/ml"},
      {"measurement": "Yeast counts at 30 min", "setting": "yeast species; [3]", "value": 3.4, "unit": "log CFU/ml"},
      {"measurement": "Yeast counts at 60 min", "setting": "yeast species; [3]", "value": 3.3, "unit": "log CFU/ml"},
      {"measurement": "Yeast counts at 2 min", "setting": "yeast species; [4]", "value": 2.6, "unit": "log CFU/ml"},
      {"measurement": "Yeast counts at 5 min", "setting": "yeast species; [4]", "value": 2.3, "unit": "log CFU/ml"},
      {"measurement": "Yeast counts at 20 min", "setting": "yeast species; [4]", "value": 2.7, "unit": "log CFU/ml"},
      {"measurement": "Yeast counts at 30 min", "setting": "yeast species; [4]", "value": 2.3, "unit": "log CFU/ml"},
      {"measurement": "Yeast counts at 60 min", "setting": "yeast species; [4]", "value": 2.4, "unit": "log CFU/ml"},
      {"measurement": "Yeast counts at 2 min", "setting": "yeast species; [5]", "value": 4.6, "unit": "log CFU/ml"},
      {"measurement": "Yeast counts at 5 min", "setting": "yeast species; [5]", "value": 4.6, "unit": "log CFU/ml"},
      {"measurement": "Yeast counts at 20 min", "setting": "yeast species; [5]", "value": 4.5, "unit": "log CFU/ml"},
      {"measurement": "Yeast counts at 30 min", "setting": "yeast species; [5]", "value": 4.5, "unit": "log CFU/ml"},
      {"measurement": "Yeast counts at 60 min", "setting": "yeast species; [5]", "value": 4.4, "unit": "log CFU/ml"}
    ]},
    {"smiles": "CC(=O)CCC(=O)O", "note": "[2.0% levulinic acids]", "values": [
      {"measurement": "Yeast counts at 2 min", "setting": "yeast species; [1]", "value": 5.9, "unit": "log CFU/ml"},
      {"measurement": "Yeast counts at 5 min", "setting": "yeast species; [1]", "value": 5.9, "unit": "log CFU/ml"},
      {"measurement": "Yeast counts at 20 min", "setting": "yeast species; [1]", "value": 6.0, "unit": "log CFU/ml"},
      {"measurement": "Yeast counts at 30 min", "setting": "yeast species; [1]", "value": 5.9, "unit": "log CFU/ml"},
      {"measurement": "Yeast counts at 60 min", "setting": "yeast species; [1]", "value": 5.8, "unit": "log CFU/ml"}
    ]}
  ]
}
